The EC50 is the concentration that produces a half-maximal response. By Emax is commonly meant the greatest response seen or fitted, relative to the assay's reference.

Here are results for three compounds from US12564560B1, “Selective serotonin receptor modulators and methods of making and using the same” (Park City Bio, LLC, priority 2024, dated 2026).

SMILES strings stand for the structures.

Common to all, as to format: cell-based
The target in test [1] is T1, 5-HT2C (Homo sapiens, UniProt P28335).
T1 sequence (P28335 33-458): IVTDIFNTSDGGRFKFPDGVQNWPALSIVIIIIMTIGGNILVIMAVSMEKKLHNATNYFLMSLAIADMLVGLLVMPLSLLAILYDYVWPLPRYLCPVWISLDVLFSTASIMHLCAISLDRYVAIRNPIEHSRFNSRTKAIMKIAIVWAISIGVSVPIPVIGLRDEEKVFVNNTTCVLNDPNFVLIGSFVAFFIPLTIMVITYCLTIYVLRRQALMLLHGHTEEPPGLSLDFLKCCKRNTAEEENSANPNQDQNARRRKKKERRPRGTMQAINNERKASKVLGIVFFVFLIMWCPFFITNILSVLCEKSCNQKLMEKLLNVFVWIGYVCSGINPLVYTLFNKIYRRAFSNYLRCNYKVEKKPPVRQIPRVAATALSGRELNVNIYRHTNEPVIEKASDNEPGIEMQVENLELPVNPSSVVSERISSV
Briefly: 5-HT2 receptor-mediated Gq activation via Gq/γ1 dissociation BRET. Details: expressed in transfected cells; host or cells: HEK293T. The text has this:
(§1) To measure 5-HT2 receptor-mediated Gq activation via Gq/y1 dissociation as measured by Bioluminescence Resonance Energy Transfer (BRET) (McCorvy J D, Wacker D, Wang S, Agegnehu B, Liu J, Lansu K, Tribo AR, Olsen RHJ, Che T, Jin J, Roth BL. Structural determinants of 5-HT2B receptor activation and biased agonism. Nat Struct Mo/Biol. 2018; 25(9): 787-96), HEK293T cells were sub-cultured in Dulbecco's Modified Eagle Medium (DMEM) supplemented with 10% dialyzed fetal bovine serum (FBS) and were co-transfected in a 1:1:1:1 ratio with Rluc8-fused human Gaq (Gaq-Rluc8), a GFP2-fused to the C-terminus of human Gy1(Gy1-GFP2), human GI31, and 5-HT2 receptor using TransiT-2020. After at least 18-24 hours, transfected cells were plated in poly-lysine coated 96-well white clear bottom cell culture plates in DMEM containing 1% dialyzed FBS at a density of 25,000-40,000 cells in 200 μL per well and incubated overnight. The following day, medium was decanted, and cells were washed with 60 μL of drug buffer (1×HBSS, 20 mM HEPES, pH 7.4), then 60 μL of drug buffer was added per well. Cells were pre-incubated at in a humidified atmosphere at 37° C. before receiving drug stimulation. Drug stimulation utilized 30 μL addition of drug (3X) diluted in McCorvy buffer (1×HBSS, 20 mM HEPES, pH 7.4, supplemented with 0.3% BSA fatty acid free, 0.03% ascorbic acid) and plates were incubated at for 1 hour at 37° C. Substrate addition occurred 15 minutes before reading and utilized 10 μL of the Rluc substrate coelenterazine 400a for Gq dissociation BRET^2 (Prolume/Nanolight, 5 μM final concentration). Plates were read for luminescence at 400 nm and fluorescent GFP2 emission at 510 nm at 1 second per well using a Mithras LB940 multimode microplate reader (e.g. one provided by Berthold). The BRET ratios of fluorescence/luminescence were calculated per well and were plotted as a function of drug concentration using Graphpad Prism 8 (Graphpad Software Inc., San Diego, CA). Data were normalized to % 5-HT stimulation and analyzed using nonlinear regression “log(agonist) vs. response” to yield Emax and EC50 parameter estimates. Results are shown in Table 5, where A=<10; B=10 to <100; C=100 to 1000 and D=>1000; +++=>80%; ++=50 to 80%; and +=<50%; NA=No Activity. […] Hallucinogenic (“Hall”) or non-hallucinogenic (“N-Hall”) plastogenic effect is predicted for compounds based on the level 5-HT2A agonist efficacy.
(BRET reads energy transfer from a luciferase to a nearby fluorophore.)

The target of test [2] is T2, 5-HT2A (Homo sapiens, UniProt P28223).
T2 construct: expressed in transfected cells; host or cells: HEK293T
T2 sequence (P28223 whole entry): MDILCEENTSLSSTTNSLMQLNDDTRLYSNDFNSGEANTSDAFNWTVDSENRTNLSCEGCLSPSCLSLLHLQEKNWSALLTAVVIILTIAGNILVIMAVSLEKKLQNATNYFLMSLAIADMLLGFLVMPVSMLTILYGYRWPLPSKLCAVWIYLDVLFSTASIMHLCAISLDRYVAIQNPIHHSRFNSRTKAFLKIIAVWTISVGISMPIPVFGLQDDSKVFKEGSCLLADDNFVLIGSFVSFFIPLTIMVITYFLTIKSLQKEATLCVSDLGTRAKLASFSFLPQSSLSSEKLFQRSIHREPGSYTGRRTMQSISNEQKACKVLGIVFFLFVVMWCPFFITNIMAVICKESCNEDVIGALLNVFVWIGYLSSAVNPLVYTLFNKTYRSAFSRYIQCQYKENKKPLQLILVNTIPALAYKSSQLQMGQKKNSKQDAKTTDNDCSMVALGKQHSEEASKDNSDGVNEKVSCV
The test is described as above. The conditions noted are these: for EC50: HEK293T cells; for Hall or N-Hall?: hallucinogenic or non-hallucinogenic effect predicted from level of 5-HT2A agonist efficacy.
Text: as §1

For test [3], the target named is T1, 5-HT2C. Briefly: 5-HT2C Gq signaling bias compared to β-arrestin signaling. The conditions noted are these: primary 5-HT2C signaling via Gq compared to β-arrestin. More on the design: expressed in transfected cells; host or cells: HEK293T (Gq arm; β-arrestin arm not described). From the text: To measure 5-HT2 receptor-mediated Gq activation via Gq/y1 dissociation as measured by Bioluminescence Resonance Energy Transfer (BRET) (McCorvy J D, Wacker D, Wang S, Agegnehu B, Liu J, Lansu K, Tribo AR, Olsen RHJ, Che T, Jin J, Roth BL. Structural determinants of 5-HT2B receptor activation and biased agonism. Nat Struct Mo/Biol. 2018; 25(9): 787-96), HEK293T cells were sub-cultured in Dulbecco's Modified Eagle Medium (DMEM) supplemented with 10% dialyzed fetal bovine serum (FBS) and were co-transfected in a 1:1:1:1 ratio with Rluc8-fused human Gaq (Gaq-Rluc8), a GFP2-fused to the C-terminus of human Gy1(Gy1-GFP2), human GI31, and 5-HT2 receptor using TransiT-2020. After at least 18-24 hours, transfected cells were plated in poly-lysine coated 96-well white clear bottom cell culture plates in DMEM containing 1% dialyzed FBS at a density of 25,000-40,000 cells in 200 μL per well and incubated overnight. The following day, medium was decanted, and cells were washed with 60 μL of drug buffer (1×HBSS, 20 mM HEPES, pH 7.4), then 60 μL of drug buffer was added per well. Cells were pre-incubated at in a humidified atmosphere at 37° C. before receiving drug stimulation. […] Substrate addition occurred 15 minutes before reading and utilized 10 μL of the Rluc substrate coelenterazine 400a for Gq dissociation BRET^2 (Prolume/Nanolight, 5 μM final concentration). Plates were read for luminescence at 400 nm and fluorescent GFP2 emission at 510 nm at 1 second per well using a Mithras LB940 multimode microplate reader (e.g. one provided by Berthold). The BRET ratios of fluorescence/luminescence were calculated per well and were plotted as a function of drug concentration using Graphpad Prism 8 (Graphpad Software Inc., San Diego, CA). Data were normalized to % 5-HT stimulation and analyzed using nonlinear regression “log(agonist) vs. response” to yield Emax and EC50 parameter estimates. […]

Test [4] concerns the target T3, 5-HT2B (Homo sapiens, UniProt P41595).
T3 construct: expressed in transfected cells; host or cells: HEK293T
Briefly: 5-HT2 receptor-mediated Gq activation via Gq/γ1 dissociation BRET. The conditions noted are these: HEK293T cells.
Text: as §1

T3 sequence (P41595 whole entry): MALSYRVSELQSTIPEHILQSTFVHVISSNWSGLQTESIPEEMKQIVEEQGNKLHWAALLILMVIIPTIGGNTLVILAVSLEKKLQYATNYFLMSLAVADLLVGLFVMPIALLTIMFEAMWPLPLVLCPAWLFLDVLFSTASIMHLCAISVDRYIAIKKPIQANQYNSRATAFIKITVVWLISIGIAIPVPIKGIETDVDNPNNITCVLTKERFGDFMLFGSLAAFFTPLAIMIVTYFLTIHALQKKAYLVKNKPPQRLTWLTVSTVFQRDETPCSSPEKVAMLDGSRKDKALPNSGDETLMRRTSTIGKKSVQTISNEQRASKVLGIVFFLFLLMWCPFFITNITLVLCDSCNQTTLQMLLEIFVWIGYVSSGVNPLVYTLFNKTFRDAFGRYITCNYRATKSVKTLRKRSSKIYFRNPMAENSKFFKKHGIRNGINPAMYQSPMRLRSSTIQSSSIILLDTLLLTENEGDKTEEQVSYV

On to `CSc1ccc(F)cc1C1CC1CN(C)C` (stereo not drawn), for which the results for the EC50 in test [1] and in test [2] (Gq dissociation BRET) were 10 to 100 nM and above 1000 nM, respectively. The Emax in test [1] (read-out: 5-HT2C Emax) was below 50%; in test [2] (Gq dissociation BRET, normalized to % 5-HT stimulation), below 50%. The “Hall or N-Hall?” value in test [2] is given as “N-Hall”. Also, in test [3], the “5-HT2C Gq signaling bias?” value is recorded as “Yes”.

As for `CNCC1CC1c1cc(F)ccc1SC` (stereo not drawn), the EC50 is below 10 nM in test [1] and 100 to 1000 nM in test [2] (Gq dissociation BRET). For the same compound, the “Hall or N-Hall?” value in test [2] is on record as “N-Hall”. In addition, the “5-HT2C Gq signaling bias?” value in test [3] was “Yes”.

`CNC[C@H]1C[C@@H]1c1cc(F)ccc1OC`: the EC50 in test [1] fell in the range of 10 to 100 nM; in test [2] (Gq dissociation BRET), 100 to 1000 nM; in test [4] it was 10 to 100 nM. Also, in test [2], the “Hall or N-Hall?” value is given as “N-Hall”. The “5-HT2C Gq signaling bias?” value in test [3] was “Yes”.
